# Measured values taken from patent publication US7309702B2, “Arylpiperazines having activity at the serotonin 1A receptor” (Avera Pharmaceuticals, Inc., priority 1997, dated 2007).
# Structures can show the parent of a compound that is named as a salt.
row,SMILES,melting point [°C]
1,"COc1ccccc1N1CCN(CCC(C(=O)C2CCCCCC2)c2ccccc2)CC1 (centres unmarked) (as salt: hydrochloride) [Example 6, 1-(2-methoxyphenyl)-4-[3-(cycloheptanecarbonyl)-3-(phenyl)propyl]piperazine dihydrochloride]",193 to 194
2,"COc1ccccc1N1CCN(CCC(C(=O)c2ccccc2)c2ccccc2)CC1.O=C(O)C(=O)O (centres unmarked) [Example 1, 1-(2-methoxyphenyl)-4-[3-(benzoyl)-3-(phenyl)propyl]piperazine Oxalate]",161 to 163
3,"O=C(C1CCCCC1)C(CCN1CCN(c2ccccn2)CC1)c1ccccc1.O=C(O)C(=O)O (centres unmarked) [Example 3, 1-(2-pyridyl)-4-[3-(cyclohexanecarbonyl)-3-(phenyl)propyl]piperazine oxalate]",185 to 187
4,"COc1ccccc1N1CCN(CCC(C)(C(=O)C2CCCCC2)c2ccccc2)CC1 (centres unmarked) [Example 9, 1-(2-methoxyphenyl)-4-[3-(cyclohexanecarbonyl)-3-(phenyl)butyl]piperazine]",192.81

# Next, values leading:
row,melting point [°C],SMILES
1,210 to 212,"COc1ccccc1N1CCN(CCC(C(=O)C2CCCC2)c2ccccc2)CC1 (centres unmarked) (as salt: hydrochloride) [Example 7, 1-(2-methoxyphenyl)-4-[3-(cyclopentanecarbonyl)-3-(phenyl)propyl]piperazine dihydrochloride]"
2,149 to 151,"COc1ccccc1N1CCN(CCC(C(=O)C2CCCCC2)c2ccccc2)CC1.O=C(O)C(=O)O (centres unmarked) [Example 2, 1-(2-methoxyphenyl)-4-[3-(cyclohexanecarbonyl)-3-(phenyl)propyl]piperazine oxalate]"
3,192 to 193,"COc1ccccc1N1CCN(CCC(C)(C(=O)c2ccccc2)c2ccccc2)CC1.O=C(O)C(=O)O (centres unmarked) [Example 5, 1-(2-methoxyphenyl)-4-[3-(benzoyl)-3-(phenyl)butyl]piperazine oxalate]"
4,100 to 102,"COc1ccccc1N1CCN(CCC(c2ccccc2)C(O)C2CCCCC2)CC1.O=C(O)C(=O)O (centres unmarked) [Example 8, 1-(2-methoxyphenyl)-4-[4-(cyclohexyl)-4-(hydroxy)-3-(phenyl)butyl]piperazine oxalate]"
